Where a SMILES comes first, the peptide text is derived from it.
Experiments:
[1] = test system: TLP antigen on primary NSCLC culture cells; test: Induction of TLP antigen expression on tumor cells by chemotherapy in vitro; type: cell-based, human; conditions: 10:g/ml for 48 hours; for TLP status of TLP-positive cell population after treatment: etoposide and cis-platinum
Source text: The cells were processed fresh and after preparation of primary cultures (complete RPMI 1640 culture medium with the addition of FCS 10%).
Along with variation in TLP, other possible phenotype modifications (IL-2 rec (interleukin receptors), HLA-Dr (human leukocyte antigen), CD16 (lymphocyte sub-populations), etc.) induced by treatment with single or combined agents (chemotherapy, cytokines) were also studied.
In the case of TLP, freshly isolated tumor cells were obtained from a surgical NSCLC patient. After plating for 24 h and separation of fibroblasts, cells were resuspended for immunohistochemistry and cytofluorimetric assay. Briefly, CSH 419 antiserum was labeled with PE conjugated anti-rabbit IgG and incubated with the cells.
The freeing of TLP in the culture supernatant was checked using the ELISA test.

[2] = test system: cytotoxic CD8 lymphocytes; test: Stimulation of cytotoxic CD8 lymphocytes by synthetic polypeptide; type: cell-based, human; conditions: only in patients suffering from NSCLC neoplasia

Compound	TLP status of TLP-negative cell population after treatment [1]	TLP status of TLP-positive cell population after treatment [1]	stimulation of cytotoxic CD8 lymphocytes [2]
COc1cc([C@@H]2c3cc4c(cc3[C@@H](O[C@@H]3O[C@@H]5CO[C@@H](C)O[C@H]5[C@H](O)[C@H]3O)[C@H]3COC(=O)[C@H]23)OCO4)cc(OC)c1O [etoposide]	became TLP-positive	remained TLP positive	
CC[C@H](C)[C@H](NC(=O)[C@H](CO)NC(=O)[C@H](C)NC(=O)[C@H](CCC(=O)O)NC(=O)[C@H](CCCCN)NC(=O)[C@H](CC(N)=O)NC(=O)[C@@H](NC(=O)[C@@H](N)CCCNC(=N)N)[C@@H](C)O)C(=O)O [SEQ ID NO: 1, ArgThrAsnLysGluAlaSerIle] (H-RTNKEASI-OH; N-terminus and C-terminus assumed)			specific stimulation of the cytotoxic CD8 lymphocytes
N.N.[Cl][Pt][Cl] [cis-platinum]	became TLP-positive	remained TLP positive	
